In US20090176870A1, “TGF-BETA MODULATORS AND METHODS FOR USING THE SAME” (MARSHFIELD CLINIC, priority 2005, published 2009):

Assays:
CHO cells = assay: CHO cell growth, tritiated thymidine incorporation; assay type: cell-based, Chinese hamster; details: for amount of radioactivity incorporated into CHO cells: tritiated thymidine
Procedure: (§1) Mv1Lu cells were purchased from ATCC. Growth inhibition assays for Mv1Lu and CHO cells were performed as described by Danielpour et al., in J. Cell. Physiol., 1989, 138, 79-86, using 0.2% fetal bovine serum to limit binding proteins present in serum.
Chinese hamster ovarian (i.e., CHO) cells were cultured in the presence of compounds and tested for growth in the presence of tritiated thymidine. […] The reported value is the average of duplicate assays.

^125I labeled TGF-β1 = ^125I labeled TGF-β1 (Homo sapiens, UniProt P01137); assay: 125I labeled TGF-β1 remaining in solution after incubation with compound and centrifugation; details: for Amount of ^125I labeled TGF-β1 in solution: 0.5 μL compound in 100 μL DMEM, 0.2% FBS overnight, 90 μL supernatant counted
Procedure: About 10 μL of ^125I labeled TGF-β1 (22.78 μCi/ml, 6.3 pmole/ml) was incubated with 0.5 μL of the compound in 100 μL of DMEM, 0.2% FBS overnight and then centrifuged. […] However, for compound NSC 119889 there was approximately a 40% increase in the amount of ^125I that remained in solution relative to the control. While this might be due to the compound decreasing adherence of TGF-β to the microcentrifuge tube, the lack of precipitation of the ^125I labeled TGF-β is consistent with the compounds blocking interaction of TGF-β1 with the receptor possibly by direct interaction with the receptor.

[1] = Precipitate formation / solubility; assay type: physicochemical; details: for Solubility: Table 3; for precipitate formation when diluted into water: room temperature, centrifugation at 17,000×G
TβRIII = biological target: T1, TβRIII (Homo sapiens, UniProt Q03167); assay: Soluble TβRIII receptor assay with 125I labeled TGF-β1; assay type: binding; details: for Amount of ^125I labeled TGF-β1 bound to TβRIII: soluble receptor assay, control 25048
T1 construct: purchased R&D Systems
T1 sequence (Q03167 21-787 limits assumed): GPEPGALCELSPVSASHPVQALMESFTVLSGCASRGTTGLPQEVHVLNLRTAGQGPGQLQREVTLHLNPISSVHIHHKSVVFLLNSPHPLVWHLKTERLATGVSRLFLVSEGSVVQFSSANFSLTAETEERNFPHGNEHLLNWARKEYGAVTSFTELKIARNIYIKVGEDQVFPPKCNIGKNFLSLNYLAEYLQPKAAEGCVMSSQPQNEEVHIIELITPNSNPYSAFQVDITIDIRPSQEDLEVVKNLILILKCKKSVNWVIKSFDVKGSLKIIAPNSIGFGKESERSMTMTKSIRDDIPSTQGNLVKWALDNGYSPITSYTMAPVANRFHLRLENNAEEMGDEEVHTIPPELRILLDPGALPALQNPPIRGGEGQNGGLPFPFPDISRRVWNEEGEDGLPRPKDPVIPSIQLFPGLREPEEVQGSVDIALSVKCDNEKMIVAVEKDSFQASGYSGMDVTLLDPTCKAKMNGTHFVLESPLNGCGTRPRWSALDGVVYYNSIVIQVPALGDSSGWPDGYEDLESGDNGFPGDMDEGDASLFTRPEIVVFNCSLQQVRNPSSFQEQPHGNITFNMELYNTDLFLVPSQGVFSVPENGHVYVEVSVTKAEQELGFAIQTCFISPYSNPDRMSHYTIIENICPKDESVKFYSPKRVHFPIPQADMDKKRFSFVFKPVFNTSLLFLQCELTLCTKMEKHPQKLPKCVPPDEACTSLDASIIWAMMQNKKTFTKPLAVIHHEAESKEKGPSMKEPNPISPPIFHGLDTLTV
Procedure: The compound NSC 119889 and related molecules also block soluble TGF-β receptor type III (TβRIII). TβRIII binds TGF-β1 and TGF-β2 and is involved in presenting TGF-β2 to TβRII. […] TβRIII was purchased from R&D Systems (Minneapolis, Minn.). It was used at concentration of 500 ng/mL in the soluble receptor assay when Immulon 2HB plates were used and at 1 μg/mL when Immulon 1B plates were used.

[2] = test system: TGF-β1 stimulated growth of CHO cells; assay: CHO cell growth stimulation by TGF-β1; assay type: cell-based, Chinese hamster; details: 1 L (FIG. 5A) and 2 μL (FIG. 5B) of blocking compound
Procedure: as §1

[3] = test system: TGF-β1 growth inhibition of Mv1Lu cells; assay: Mv1Lu growth inhibition assay with TGF-β1; assay type: cell-based, mink; details: TGF-β1 1.5 ng/mL serially diluted to 0.095 ng/mL with compound, FIGS. 4A-4D
Procedure: Mv1Lu cells were purchased from ATCC. Growth inhibition assays for Mv1Lu and CHO cells were performed as described by Danielpour et al., in J. Cell. Physiol., 1989, 138, 79-86, using 0.2% fetal bovine serum to limit binding proteins present in serum. Mv1Lu cells were cultured in the presence of a standard TGF-β dilution curve starting at 1.5 ng/mL and serially diluted to 0.047 ng/mL or in the presence of TGF-β1 (1.5 ng/mL serially diluted to 0.095 ng/mL) with the compound. For each tested compound, one assay contained only the compound and no added TGF-β1.

[4] = test system: TGF-β1 activity in CHO cells carrying the plasmid pTARE-Luc; assay: pTARE luciferase reporter assay in CHO cells; assay type: cell-based, Chinese hamster; details: compound 1 μL/mL with added TGF-β1 25 ng/mL, FIG. 2B
Procedure: The pTARE luciferase reporter system was purchased from Stratagene (La Jolla, Calif.) and transfected into CHO (Chinese Hamster Ovary) cells that were purchased from ATCC (American Type Culture Collection). The plasmid pSV2neo was co-transfected with pTARE at a 40 fold lower concentration to allow for selection of colonies that received plasmid DNA using G418. Luciferase assays were performed as described using Luciferase assay system and reporter lysis buffer (Promega, Madison, Wis.). Luciferase was quantitated using a luminometer (Turner Designs, Inc., Sunnyvale, Calif.).
Compounds of Table 1 (see Example 1 above) were further tested for their ability to modulate TGF-β1 activity. Briefly, the CHO cells carrying the plasmid pTARE-Luc were treated either with each compound individually (1 μL/mL) or with added TGF-β1 (25 ng/mL). Without being bound by any theory, it is believed that testing the compound by itself in this assay allows the identification of candidate TβRII agonists while testing the chemical in the presence of TGF-β1 allows the identification of candidate TGF-β1 antagonists.

TβRII = biological target: T2, TβRII (Homo sapiens, UniProt P37173); assay: Soluble TβRII binding assay with 125I labeled TGF-β1; details: I-125 TGF-β1, increasing concentration of competitor, FIG. 6
T2 construct: purchased R&D Systems
Procedure: Immulon 1B or 2 HB 96 well plates (Dynex Technologies, Inc., Chantilly, Va.) were coated with 100 μL/well of 500 ng/mL TβRII (R&D Systems, Minneapolis, Minn.) in phosphate buffered saline overnight at 4° C. and then blocked for 1 hr with 150 μL/well of 1% bovine serum albumin, 150 mM NaCl, 100 mM tris-HCl, pH 7.6. Following washing with PBS/0.05% Tween 20 (wash buffer, i.e., “WB”) samples were serially diluted in 1 mg/mL BSA, 0.15 M NaCl, 100 mM tris-HCl, pH 7.6, 0.05% Tween 20 containing 5 ng/mL of ^125I labeled TGF-β1 as described by Frolik et al., in J. Biol. Chem., 1984, 259, 10995-11000. Samples were incubated in the wells with TβRII for one hour at room temperature and then the plates were washed with WB. Individual wells were separated and counted.
To identify novel organic chemicals that block TGF-B activity, about 30,000 chemicals from the National Cancer Institute Developmental Therapeutics program open repository were screened. This repository contains about 140,000 chemicals. For screening, soluble TBRII was attached to an immulon 2 HB plate and then blocked with BSA. About 1 μL of each test chemical was diluted from the stock plate into 125 μL of dilution buffer containing 5 ng/mL I-125 labeled TGF-β1. In some cases, 1 μL of four chemicals each was combined to allow higher throughput. […]

Sequence of ^125I labeled TGF-β1 (P01137 279-390 limits assumed): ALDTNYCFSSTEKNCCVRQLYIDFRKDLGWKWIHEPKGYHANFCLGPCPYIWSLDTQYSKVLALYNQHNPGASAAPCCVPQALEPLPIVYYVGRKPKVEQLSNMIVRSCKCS
T2 sequence (P37173 23-166 limits assumed, species assumed): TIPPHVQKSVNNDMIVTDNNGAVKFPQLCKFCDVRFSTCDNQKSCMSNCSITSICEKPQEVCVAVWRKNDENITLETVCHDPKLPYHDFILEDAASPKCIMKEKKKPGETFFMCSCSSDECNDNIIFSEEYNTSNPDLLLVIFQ

| Compound | amount of radioactivity incorporated into CHO cells (CHO cells; Experiment 1, average of duplicate assays) | amount of radioactivity incorporated into CHO cells (CHO cells; Experiment 2, average of duplicate assays) | growth of CHO cells (in words) (CHO cells; two experiments) | Amount of ^125I labeled TGF-β1 in solution (^125I labeled TGF-β1; first value column) | increase in the amount of ^125I that remained in solution relative to the control (^125I labeled TGF-β1; relative to control) [%] | Amount of ^125I labeled TGF-β1 in solution (^125I labeled TGF-β1; second value column) | Amount of ^125I labeled TGF-β1 in solution (^125I labeled TGF-β1; third value column) | Solubility [1] | precipitate formation when diluted into water [1] | blocking of binding of ^125I labeled TGF-β1 to TβRIII (in words) (TβRIII) | Amount of ^125I labeled TGF-β1 bound to TβRIII (TβRIII) | blocking of TGF-β1 stimulation of CHO cell growth [2] | blocking of growth inhibition of TGF-β1 [3] | luciferase activity in the presence of TGF-β1 [4] | binding competition vs TGF-β1 for soluble TβRII, effective concentration range (TβRII) |
| --- | --- | --- | --- | --- | --- | --- | --- | --- | --- | --- | --- | --- | --- | --- | --- |
| O=C(O)c1c(Br)c(Br)c(Br)c(Br)c1C1c2ccc(O)cc2Oc2cc(O)ccc21 [NSC 119889] | 1475 | 936 | did not substantially inhibit growth of CHO cells | 38324 | ~40 | 27159 | 29239 | no ppt | form less or no precipitate | blocks binding of the ^125I labeled TGF-β1 to TβRIII | 746 | This stimulation was blocked | blocks growth inhibition of TGF-β1 | marked reduction in luciferase activity | – |
| O=C(O)C1CCCCC1c1c2ccc(=O)c(O)c-2oc2c(O)c(O)ccc12 (stereo not shown) [NSC 119910] | – | – | – | – | – | 24924 | 20587 | ppt | form precipitates | – | – | – | – | – | – |
| O=C(O)/C=C/c1c2ccc(=O)c(O)c-2oc2c(O)c(O)ccc12 [NSC 119911] | – | – | – | 33990 | – | 25748 | 24534 | ppt | form precipitates | – | 769 | – | blocks growth inhibition by TGF-β1 | – | – |
| CC1C2C=CC1C(c1c3ccc(=O)c(O)c-3oc3c(O)c(O)ccc13)C2C(=O)O (stereo not shown) [NSC 119913] | – | – | – | – | – | 27614 | 27960 | no ppt | form less or no precipitate | – | – | – | – | – | – |
| O=C(O)CCc1c2ccc(=O)c(O)c-2oc2c(O)c(O)ccc12 [NSC 119915] | – | – | – | 33660 | – | 25308 | 20770 | ppt | form precipitates | – | 726 | – | blocks growth inhibition of TGF-β1 | – | – |
| Oc1cc(O)c2c(c1)OC(c1ccc(O)c(O)c1)C(OC1(c3cc(O)c(O)c(O)c3)Oc3cc(O)cc(O)c3C(O)C1O)C2 (stereo not shown) [NSC 143101] | – | – | – | 34567 | – | – | – | no ppt | – | – | – | – | – | – | – |
| O=C(O)c1c[nH]c2cc(OCc3ccccc3)ccc2c1=O [NSC 306960] | – | – | – | 32155 | – | – | – | no ppt | – | – | – | – | did not block the growth inhibition activity of TGF-β1 | did not inhibit TGF-β1 induction of luciferase activity | – |
| TGF-β1: non-labeled TGF-β1 protein used as competitor for TβRII in the binding competition curve | – | – | – | – | – | – | – | – | – | – | – | – | – | – | nanomolar range |
